According to PubChem BioAssay (NCI):
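Briefly, cells in 96-well plates were exposed to five compound concentrations for 48 h, and endpoints were estimated by linear interpolation. TGI: total growth inhibition.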

Tests used:
Assay in all cases: growth of human tumour cells (NCI), 48 h
[1] = system: MDA-N
[2] = system: HCC-2998 colon
[3] = system: NCI/ADR-RES ovarian
[4] = system: OVCAR-8 ovarian
[5] = system: K-562 leukemia
[6] = system: UACC-62 melanoma
[7] = system: MCF7 breast
[8] = system: T-47D breast
[9] = system: HS 578T breast
[10] = system: SK-MEL-28 melanoma
[11] = system: HL-60(TB) leukemia
[12] = system: OVCAR-3 ovarian
[13] = system: A498 renal
[14] = system: CCRF-CEM leukemia
[15] = system: SW-620 colon
[16] = system: SN12C renal
[17] = system: SF-268 CNS
[18] = system: NCI-H226 lung
[19] = system: MDA-MB-231 breast
[20] = system: BT-549 breast
[21] = system: LOX IMVI melanoma
[22] = system: UO-31 renal
[23] = system: CAKI-1 renal
[24] = system: IGROV1 ovarian
[25] = system: SF-539 CNS
[26] = system: HCT-15 colon
[27] = system: PC-3 prostate
[28] = system: SNB-19 CNS
[29] = system: DU-145 prostate
[30] = system: SNB-75 CNS
[31] = system: U251 CNS
[32] = system: OVCAR-5 ovarian
[33] = system: UACC-257 melanoma
[34] = system: HOP-92 NSCLC
[35] = system: OVCAR-4 ovarian
[36] = system: A549 NSCLC
[37] = system: NCI-H460 lung
[38] = system: M14 melanoma
[39] = system: MOLT-4 leukemia
[40] = system: MDA-MB-435
[41] = system: ACHN renal
[42] = system: SK-MEL-5 melanoma
[43] = system: RPMI-8226 leukemia
[44] = system: SK-MEL-2 melanoma
[45] = system: COLO 205 colon
[46] = system: NCI-H522 lung
[47] = system: MALME-3M melanoma
[48] = system: NCI-H23 lung
[49] = system: EKVX NSCLC
[50] = system: SF-295 CNS
[51] = system: HCT-116 colon
[52] = system: TK-10 renal
[53] = system: 786-0 renal
[54] = system: HT29 colon
[55] = system: SK-OV-3 ovarian
[56] = system: KM12 colon
[57] = system: HOP-62 NSCLC
[58] = system: RXF 393 renal
[59] = system: SR leukemia

COc1c2ccoc2nc2c(OC)c(OCC(O)C(C)(C)O)ccc12 (centres undefined)
TGI [1]: > 100 µM | TGI [2]: > 100 µM | TGI [3]: > 100 µM | TGI [4]: > 100 µM | TGI [5]: > 100 µM | TGI [6]: > 100 µM | TGI [7]: > 100 µM | TGI [8]: > 100 µM | TGI [9]: > 100 µM | TGI [10]: > 100 µM | TGI [11]: > 100 µM | TGI [12]: > 100 µM | TGI [13]: > 100 µM | TGI [14]: > 100 µM | TGI [15]: > 100 µM | TGI [16]: > 100 µM | TGI [17]: > 100 µM | TGI [18]: > 100 µM | TGI [19]: > 100 µM | TGI [20]: > 100 µM | TGI [21]: > 100 µM | TGI [22]: > 100 µM | TGI [23]: > 100 µM | TGI [24]: > 100 µM | TGI [25]: > 100 µM | TGI [26]: > 100 µM | TGI [27]: > 100 µM | TGI [28]: > 100 µM | TGI [29]: > 100 µM | TGI [30]: > 100 µM | TGI [31]: > 100 µM | TGI [32]: > 100 µM | TGI [33]: > 100 µM | TGI [34]: > 100 µM | TGI [35]: > 100 µM | TGI [36]: > 100 µM | TGI [37]: > 100 µM | TGI [38]: > 100 µM | TGI [39]: > 100 µM | TGI [40]: > 100 µM | TGI [41]: > 100 µM | TGI [42]: > 100 µM | TGI [43]: > 100 µM | TGI [44]: > 100 µM | TGI [45]: > 100 µM | TGI [46]: > 100 µM | TGI [47]: > 100 µM | TGI [48]: > 100 µM | TGI [49]: > 100 µM | TGI [50]: > 100 µM | TGI [51]: > 100 µM | TGI [52]: > 100 µM | TGI [53]: > 100 µM | TGI [54]: > 100 µM | TGI [55]: > 100 µM | TGI [56]: > 100 µM

CC(=O)n1[nH]c(=O)n(-c2ccc(Cl)cc2)c1=O
TGI [57]: > 100 µM | TGI [1]: > 100 µM | TGI [2]: > 100 µM | TGI [3]: > 100 µM | TGI [4]: > 100 µM | TGI [5]: > 100 µM | TGI [6]: > 100 µM | TGI [7]: > 100 µM | TGI [58]: > 100 µM | TGI [8]: > 100 µM | TGI [10]: > 100 µM | TGI [11]: > 100 µM | TGI [12]: > 100 µM | TGI [14]: > 100 µM | TGI [15]: > 100 µM | TGI [16]: > 100 µM | TGI [17]: > 100 µM | TGI [18]: > 100 µM | TGI [19]: > 100 µM | TGI [20]: > 100 µM | TGI [21]: > 100 µM | TGI [22]: > 100 µM | TGI [23]: > 100 µM | TGI [24]: > 100 µM | TGI [26]: > 100 µM | TGI [27]: > 100 µM | TGI [28]: > 100 µM | TGI [29]: > 100 µM | TGI [31]: > 100 µM | TGI [32]: > 100 µM | TGI [33]: > 100 µM | TGI [35]: > 100 µM | TGI [36]: > 100 µM | TGI [37]: > 100 µM | TGI [38]: > 100 µM | TGI [39]: > 100 µM | TGI [40]: > 100 µM | TGI [41]: > 100 µM | TGI [42]: > 100 µM | TGI [43]: > 100 µM | TGI [44]: > 100 µM | TGI [45]: > 100 µM | TGI [46]: > 100 µM | TGI [47]: > 100 µM | TGI [48]: > 100 µM | TGI [49]: > 100 µM | TGI [59]: > 100 µM | TGI [50]: > 100 µM | TGI [51]: > 100 µM | TGI [52]: > 100 µM | TGI [53]: > 100 µM | TGI [54]: > 100 µM | TGI [55]: > 100 µM | TGI [56]: > 100 µM

O=C(Nc1ccc(Cl)cc1C(F)(F)F)C(=O)Nn1c(=S)[nH]c2ccccc2c1=O
TGI [57]: > 100 µM | TGI [1]: > 100 µM | TGI [2]: > 100 µM | TGI [3]: > 100 µM | TGI [4]: > 100 µM | TGI [5]: > 100 µM | TGI [6]: > 100 µM | TGI [7]: > 100 µM | TGI [58]: > 100 µM | TGI [8]: > 100 µM | TGI [9]: > 100 µM | TGI [10]: > 100 µM | TGI [11]: > 100 µM | TGI [12]: > 100 µM | TGI [13]: > 100 µM | TGI [14]: > 100 µM | TGI [15]: > 100 µM | TGI [16]: > 100 µM | TGI [17]: > 100 µM | TGI [18]: > 100 µM | TGI [19]: > 100 µM | TGI [20]: > 100 µM | TGI [21]: > 100 µM | TGI [22]: > 100 µM | TGI [23]: > 100 µM | TGI [25]: > 100 µM | TGI [26]: > 100 µM | TGI [27]: > 100 µM | TGI [30]: > 100 µM | TGI [31]: > 100 µM | TGI [32]: > 100 µM | TGI [33]: > 100 µM | TGI [34]: > 100 µM | TGI [35]: > 100 µM | TGI [36]: > 100 µM | TGI [37]: > 100 µM | TGI [38]: > 100 µM | TGI [39]: > 100 µM | TGI [40]: > 100 µM | TGI [41]: > 100 µM | TGI [42]: > 100 µM | TGI [43]: > 100 µM | TGI [44]: > 100 µM | TGI [48]: > 100 µM | TGI [50]: > 100 µM | TGI [51]: > 100 µM | TGI [52]: > 100 µM | TGI [53]: > 100 µM | TGI [54]: > 100 µM | TGI [55]: > 100 µM | TGI [56]: > 100 µM

O=S(=O)(Nc1nc2ccccc2nc1N1CCCCCC1)c1ccccc1
TGI [57]: 84.5 µM | TGI [1]: > 100 µM | TGI [2]: 31.9 µM | TGI [3]: > 100 µM | TGI [4]: > 100 µM | TGI [5]: > 100 µM | TGI [6]: 52.9 µM | TGI [7]: > 100 µM | TGI [58]: 57.5 µM | TGI [8]: > 100 µM | TGI [9]: 83.9 µM | TGI [10]: > 100 µM | TGI [11]: 75.1 µM | TGI [12]: 36.5 µM | TGI [14]: > 100 µM | TGI [15]: 65.3 µM | TGI [16]: > 100 µM | TGI [17]: > 100 µM | TGI [18]: > 100 µM | TGI [19]: > 100 µM | TGI [20]: 50.1 µM | TGI [21]: > 100 µM | TGI [22]: 33.9 µM | TGI [23]: > 100 µM | TGI [24]: > 100 µM | TGI [25]: 95.7 µM | TGI [26]: 45 µM | TGI [27]: 77.4 µM | TGI [28]: > 100 µM | TGI [29]: > 100 µM | TGI [30]: 86.1 µM | TGI [31]: 48.8 µM | TGI [32]: > 100 µM | TGI [33]: 99.2 µM | TGI [34]: 37.4 µM | TGI [35]: 36.4 µM | TGI [36]: > 100 µM | TGI [37]: 33.5 µM | TGI [38]: 49.9 µM | TGI [39]: 44.2 µM | TGI [40]: 64.6 µM | TGI [41]: 86.7 µM | TGI [42]: 29.5 µM | TGI [43]: > 100 µM | TGI [44]: 33.4 µM | TGI [45]: > 100 µM | TGI [46]: 57.1 µM | TGI [47]: > 100 µM | TGI [48]: 44.2 µM | TGI [49]: > 100 µM | TGI [59]: > 100 µM | TGI [50]: 70 µM | TGI [51]: > 100 µM | TGI [52]: 40 µM | TGI [53]: > 100 µM | TGI [54]: > 100 µM | TGI [55]: 89.6 µM | TGI [56]: 52 µM
